# Measurements as given in US7262212B2, “2,3-dihydro-6-nitroimidazo[2,1-b]oxazoles” (Otsuka Pharmaceutical Co., Ltd., priority 2002, dated 2007).
row,melting point,Structure (SMILES)
1,201.5 to 203.2 °C,C[C@]1(COc2ccc(N3CCN(C(=O)c4ccc(OC(F)(F)F)cc4)CC3)cc2)Cn2cc([N+](=O)[O-])nc2O1
2,202 to 203 °C (dec.),Cc1ccc(NC(=O)N2CCN(CC3(C)Cn4cc([N+](=O)[O-])nc4O3)CC2)cc1 (centres unmarked)
3,196.6 to 197.3 °C,CC1(CN2CCN(c3ccc(Cl)cc3)CC2)Cn2cc([N+](=O)[O-])nc2O1 (centres unmarked)
4,204 to 206 °C,C[C@]1(CN2CCN(S(=O)(=O)Cc3ccc(Cl)cc3)CC2)Cn2cc([N+](=O)[O-])nc2O1
5,129 to 130 °C,CC1(CN2CCC(OCc3ccc(Cl)cc3)CC2)Cn2cc([N+](=O)[O-])nc2O1 (centres unmarked)
6,202 to 204 °C,CC1(CN2CCN(S(=O)(=O)c3ccc(Cl)cc3)CC2)Cn2cc([N+](=O)[O-])nc2O1 (centres unmarked)
7,139.5 to 140.5 °C,C[C@]1(CN2CCN(C(=O)OCc3ccc(OC(F)(F)F)cc3)CC2)Cn2cc([N+](=O)[O-])nc2O1
8,107.5 to 109 °C,C[C@]1(CN2CCC(Nc3ccc(OC(F)(F)F)cc3)CC2)Cn2cc([N+](=O)[O-])nc2O1
9,223 to 227.8 °C,CC1(CN2CCN(c3ccc(-c4ccccc4)cc3)CC2)Cn2cc([N+](=O)[O-])nc2O1 (centres unmarked)
10,151 to 152.3 °C,CC1(COc2ccc(N3CCC(Oc4ccc(Cl)cc4)CC3)cc2)Cn2cc([N+](=O)[O-])nc2O1 (centres unmarked)
11,93 to 95 °C,C[C@@]1(CN2CCN(Cc3ccc(C(F)(F)F)cc3)CC2)Cn2cc([N+](=O)[O-])nc2O1
12,248 to 249 °C,CC1(Cn2nc(-c3ccc(-c4ccccc4)cc3)oc2=O)Cn2cc([N+](=O)[O-])nc2O1 (centres unmarked)
13,201 to 202.3 °C (dec.),C[C@]1(CN2CCN(N=Cc3ccc(C(F)(F)F)cc3)CC2)Cn2cc([N+](=O)[O-])nc2O1 [Example 504]
14,91 to 93 °C,C[C@]1(CN2CCN(C(=O)OCC=Cc3ccc(OC(F)(F)F)cc3)CC2)Cn2cc([N+](=O)[O-])nc2O1
15,178.5 to 179.5 °C,O=[N+]([O-])c1cn2c(n1)O[C@@H](CN1CCN(c3ccc(F)cc3)CC1)C2
16,185.5 to 187.5 °C,COc1ccc(NC(=O)N2CCN(C[C@@]3(C)Cn4cc([N+](=O)[O-])nc4O3)CC2)cc1
17,168 to 171.4 °C,CC1(CN2CCN(C(=O)Cc3ccc(C(F)(F)F)cc3)CC2)Cn2cc([N+](=O)[O-])nc2O1 (centres unmarked)
18,204 to 207 °C,CN(C)c1ccc(C(=O)N2CCN(CC3(C)Cn4cc([N+](=O)[O-])nc4O3)CC2)cc1 (centres unmarked)
19,117 to 121 °C,C[S+]([O-])c1ccc(COC(=O)N2CCN(CC3(C)Cn4cc([N+](=O)[O-])nc4O3)CC2)cc1 (centres unmarked)

row,melting point,Structure (SMILES)
1,184.5 to 187.5 °C,C[C@]1(COc2ccc(N3CCN(C(=O)OCc4ccc(Cl)cc4)CC3)cc2)Cn2cc([N+](=O)[O-])nc2O1
2,174.3 to 175.5 °C,Cc1nc(-c2ccc(Cl)cc2)sc1CN1CCN(C[C@@]2(C)Cn3cc([N+](=O)[O-])nc3O2)CC1
3,218 to 219.6 °C,C[C@]1(CN2CCN(c3ccc(Cl)cc3)CC2)Cn2cc([N+](=O)[O-])nc2O1
4,100.4 to 102.4 °C,CN(C(=O)N1CCN(C[C@@]2(C)Cn3cc([N+](=O)[O-])nc3O2)CC1)c1ccc(C(F)(F)F)cc1
5,198 to 200 °C,C[C@]1(COc2ccc(N3CC[S+]([O-])CC3)cc2)Cn2cc([N+](=O)[O-])nc2O1
6,185 to 188 °C (dec.),CC1(CN2CCN(C(=O)Nc3ccc(Cl)cc3)CC2)Cn2cc([N+](=O)[O-])nc2O1 (centres unmarked)
7,138 to 142.2 °C,CC1(CN2CCCN(Cc3ccc(-c4ccccc4)cc3)CC2)Cn2cc([N+](=O)[O-])nc2O1 (centres unmarked)
8,222 to 224 °C,CC1(CN2CCN(C(=O)Nc3ccc(Cl)c(C(F)(F)F)c3)CC2)Cn2cc([N+](=O)[O-])nc2O1 (centres unmarked)
9,130.5 to 132.1 °C,CC1(CN2CCN(C(=O)OCc3ccccc3)CC2)Cn2cc([N+](=O)[O-])nc2O1.Cl (centres unmarked)
10,264.6 to 268.3 °C,CC1(CN2C(=O)c3ccccc3C2=O)Cn2cc([N+](=O)[O-])nc2O1 (centres unmarked)
11,161 to 162 °C,CC1(CN2CCN(C(=O)c3ccc(C(F)(F)F)cc3)CC2)Cn2cc([N+](=O)[O-])nc2O1 (centres unmarked)
12,227.5 to 229 °C,C[C@]1(COc2ccc(N3CCSCC3)cc2)Cn2cc([N+](=O)[O-])nc2O1
13,195 to 197 °C,C[C@]1(COc2ccc(N3CCN(C(=O)OCc4cc5cc(Cl)ccc5o4)CC3)cc2)Cn2cc([N+](=O)[O-])nc2O1
14,122 to 124 °C,CC1(CN2CCN(C(=O)c3cccc(C(F)(F)F)c3)CC2)Cn2cc([N+](=O)[O-])nc2O1 (centres unmarked)
15,230 to 232 °C,CC(C)(C)OC(=O)N1CCN(c2ccc(OC[C@@]3(C)Cn4cc([N+](=O)[O-])nc4O3)cc2)CC1
16,200.1 to 201 °C,C[C@]1(CN2CC=C(c3ccccc3)CC2)Cn2cc([N+](=O)[O-])nc2O1
17,161 to 162 °C,C[C@]1(CN2CCN(C(=O)N3CC=C(c4ccc(Cl)cc4)CC3)CC2)Cn2cc([N+](=O)[O-])nc2O1
18,210.5 to 212 °C,CCOC(=O)N1CCN(c2ccc(OC[C@@]3(C)Cn4cc([N+](=O)[O-])nc4O3)cc2)CC1

# The next lines start with the molecule.
row,Structure (SMILES),melting point
1,CC1(CN2CCC(Cc3ccc(OC(F)(F)F)cc3)CC2)Cn2cc([N+](=O)[O-])nc2O1 (centres unmarked),143.5 to 145 °C
2,C[C@]1(CN2CCN(C(=O)OCC(F)(F)F)CC2)Cn2cc([N+](=O)[O-])nc2O1,123.5 to 124 °C
3,O=C(CN1CCN(CC(=O)N2CCC3(CC2)Cn2cc([N+](=O)[O-])nc2O3)CC1)Nc1ccc(C(F)(F)F)cc1,133 to 135 °C
4,CNC(C1CCN(c2ccc(C(F)(F)F)cc2)CC1)[C@]1(C)Cn2cc([N+](=O)[O-])nc2O1 (some centres unmarked),131.5 to 133.6 °C
5,COc1ccc(CN2CCN(CC3(C)Cn4cc([N+](=O)[O-])nc4O3)C2=O)c(OC)c1 (centres unmarked),175 to 175.4 °C
6,CC1(CN2CCN(Cc3ccc(Br)cc3)C2=O)Cn2cc([N+](=O)[O-])nc2O1 (centres unmarked),205.7 to 208.1 °C
7,CC(C)(C)OC(=O)N1CCN(C(=O)c2ccc(OC[C@@]3(C)Cn4cc([N+](=O)[O-])nc4O3)cc2)CC1,222.5 to 224 °C
8,CC1(CNC(=O)OCc2ccccc2)Cn2cc([N+](=O)[O-])nc2O1 (centres unmarked),171.3 to 172.2 °C
9,CN(CC1(C)Cn2cc([N+](=O)[O-])nc2O1)C(=O)OCc1ccccc1 (centres unmarked),150.3 to 151.6 °C
10,CC(C)(C)OC(=O)N1CCC(n2c(=O)n(CC3(C)Cn4cc([N+](=O)[O-])nc4O3)c3ccccc32)CC1 (centres unmarked),218 to 219.1 °C
11,CC(C)(C)OC(=O)N1CCN(c2ccc(OC[C@@]3(C)Cn4cc([N+](=O)[O-])nc4O3)cc2Cl)CC1,207 to 209.5 °C
12,CC(C)(C)OC(=O)N(CCc1ccc(C(F)(F)F)cc1)C1CCN(C[C@@]2(C)Cn3cc([N+](=O)[O-])nc3O2)CC1,206.8 to 208.6 °C
13,CC1(CCc2nnnn2-c2ccc(Cl)cc2)Cn2cc([N+](=O)[O-])nc2O1 (centres unmarked),198 to 200 °C
14,Cn1c(=O)n(CC2(C)Cn3cc([N+](=O)[O-])nc3O2)c2cc(C(F)(F)F)ccc21 (centres unmarked),232.4 to 234.7 °C
15,CC1(CN2CCN(C(=O)OCC#Cc3ccc(C(F)(F)F)cc3)CC2)Cn2cc([N+](=O)[O-])nc2O1.O=C(O)/C=C\C(=O)O (centres unmarked),166 °C (dec.)
16,O=C(NCc1ccc(C(F)(F)F)cc1)N1CCC2(CC1)Cn1cc([N+](=O)[O-])nc1O2,215 to 217 °C
17,CC(C)(C)OC(=O)CNC(=O)OCC1(C)Cn2cc([N+](=O)[O-])nc2O1 (centres unmarked),104 to 106 °C
18,COc1ccc(CN2CCN(CC3(C)Cn4cc([N+](=O)[O-])nc4O3)C2=O)cc1 (centres unmarked),158.6 to 160.5 °C
19,CNC(C1CCN(C(=O)OCc2ccc(OC(F)(F)F)cc2)CC1)[C@]1(C)Cn2cc([N+](=O)[O-])nc2O1 (some centres unmarked),84.2 to 86.8 °C
20,CC(C)(C)OC(=O)N1CCN(C(=O)OC[C@@]2(C)Cn3cc([N+](=O)[O-])nc3O2)CC1,211 to 212 °C

row,Structure (SMILES),melting point
1,C[C@]1(COC(=O)N2CCc3cc(Cl)ccc3C2)Cn2cc([N+](=O)[O-])nc2O1,180 to 182 °C
2,CCOC(=O)c1ccccc1NCC1(C)Cn2cc([N+](=O)[O-])nc2O1 (centres unmarked),162.5 to 163.2 °C
3,C[C@]1(COc2ccc(C3=CCN(Cc4ccc(OC(F)(F)F)cc4)CC3)cc2)Cn2cc([N+](=O)[O-])nc2O1,168 to 174 °C
4,Cc1ccc(NC(=O)N2CCC3(CC2)Cn2cc([N+](=O)[O-])nc2O3)cc1,> 300 °C
5,C[C@]1(CN2CCC(N3CCN(C(=O)c4ccc(Cl)cc4)CC3)CC2)Cn2cc([N+](=O)[O-])nc2O1,174 to 175 °C
6,CC1(COc2nc3ccccc3o2)Cn2cc([N+](=O)[O-])nc2O1 (centres unmarked),200 to 203 °C
7,C[C@]1(CO)Cn2cc([N+](=O)[O-])nc2O1,162 to 163 °C
8,CCCCCCn1c(=O)n(CC2(C)Cn3cc([N+](=O)[O-])nc3O2)c2cc(Cl)ccc21 (centres unmarked),168.1 to 169.3 °C
9,CC(=O)N1CCC2(CC1)Cn1cc([N+](=O)[O-])nc1O2,232 to 234 °C
10,CC1(CN2CCN(C(C)(C)C)C(=O)C2)Cn2cc([N+](=O)[O-])nc2O1 (centres unmarked),193 to 194 °C
11,CC(C)n1c(=O)n(CC2(C)Cn3cc([N+](=O)[O-])nc3O2)c2cc(Cl)ccc21 (centres unmarked),240.5 to 244.8 °C
12,CC1(COC(=O)Nc2cccc(F)c2)Cn2cc([N+](=O)[O-])nc2O1 (centres unmarked),168 to 169 °C
13,CCOC(=O)N1CCN(C(=O)c2ccc(OC[C@@]3(C)Cn4cc([N+](=O)[O-])nc4O3)cc2)CC1,132 to 135 °C
14,CC1(CCN2CCN(C(=O)OCc3ccc(C(F)(F)F)cc3)CC2)Cn2cc([N+](=O)[O-])nc2O1 (centres unmarked),139 to 140 °C
15,C[C@]1(COc2ccc(C(=O)N3CCN(C(=O)OCc4ccc(OC(F)(F)F)cc4)CC3)cc2)Cn2cc([N+](=O)[O-])nc2O1,168.5 to 172 °C
16,O=C(CN1CCC2(CC1)Cn1cc([N+](=O)[O-])nc1O2)N1CCN(Cc2ccc(C(F)(F)F)cc2)CC1,195 to 197 °C (dec.)
17,CN(CCOc1ccc(OC(F)(F)F)cc1)CC1(C)Cn2cc([N+](=O)[O-])nc2O1 (centres unmarked),86.4 to 89.2 °C
18,C[C@]1(CN2CCC(N3CCC(Oc4ccc(OC(F)(F)F)cc4)CC3)CC2)Cn2cc([N+](=O)[O-])nc2O1,131 to 132 °C
19,C[C@]1(COC(=O)N2CCN(N=Cc3ccc(C(F)(F)F)cc3)CC2)Cn2cc([N+](=O)[O-])nc2O1,176 to 178 °C
20,CC1(Cn2ccnc2)Cn2cc([N+](=O)[O-])nc2O1 (centres unmarked),245.5 to 247.8 °C
